Reference: patent US10856563B2, “N-acyl-amino acid derivatives for improvement of the flavor profile of edible compositions” (Givaudan S.A., priority 2012, dated 2020)

Legend:
[1] = Test on Tang (high intensity sweetener HIS masking), evaluation by expert tasters; conditions: versus base
Procedure: In an orange flavoured Tang powdered soft drink (market product) sweetened with sucrose plus high intensity sweetener (aspartame and acesulfame-K) and containing citric acid, C18:2-gaba and C18:2-pro were tested.
All samples were evaluated by expert tasters. Tasters were asked to describe the samples focusing on authentic taste, masking off notes of high intensity sweetener, mouthfeel & body, enhancement, richness, juiciness, long lastingness, salivation, sweetness
Base is Orange flavoured Tang
Base: sweet, orange, licorice, and lingering high intensity sweetener off-notes, bitter, thin

[2] = Test on soy milk (soy protein masking), evaluation by expert tasters; conditions: 2 ppm in soy milk (1.8% fat), 5% sucrose, milk flavour 0.1%
Procedure: In a soy milk (1.8% fat) sweetened with 5% sucrose by weight, flavoured with a proprietary milk flavour at a dosage of 0.1%, C18:2-gaba was added at 2 ppm
Samples were evaluated by expert tasters. Tasters were asked to describe the samples focusing on authentic taste, masking of soy protein off notes, mouthfeel, fullness, salivation, sweetness, richness, long lastingness and fattiness.
Soy milk, 5% sucrose, milk flavor @ 0.1%: sweet, dry, green, soy bean taste

[3] = Test on liquid margarine (KCL masking), evaluation by expert tasters; conditions: 2 ppm in Blueband liquid margarine, 0.8% KCL, proprietary masking flavour 0.01%
Procedure: In Blueband liquid margarine (market product) with added KCL 0.8% and a proprietary masking flavour @ 0.01% 18:2 gaba was added at 2 ppm.
Samples were evaluated by expert tasters. Tasters were asked to describe the samples focusing on authentic taste, masking of KCL off notes, mouthfeel, saltiness, fullness, salivation, long lastingness and fattiness.
Base is Blueband, 0.8% KCL, proprietary masking @ 0.01%
Base: metallic, buttery, bitter and soapy

CCCCC/C=C\C/C=C\CCCCCCCC(=O)N1CCC[C@H]1C(=O)O [C18:2-Pro, N-linoleoyl-Pro]
masking off notes of high intensity sweetener ([1]; 1 ppm in orange flavoured Tang (sucrose, aspartame, acesulfame-K, citric acid)): the off-notes of the high intensity sweetener were suppressed
taste description (enhancement, juiciness, authentic taste) ([1]; 1 ppm in orange flavoured Tang): the fresh, sweet juicy orange notes are enhanced, characteristic of authentic fresh orange fruit

CCCCC/C=C\C/C=C\CCCCCCCC(=O)NCCCC(=O)O [C18:2-gaba]
masking off notes of high intensity sweetener ([1]; 0.5 ppm in orange flavoured Tang (sucrose, aspartame, acesulfame-K, citric acid)): the off-notes of the high intensity sweetener were suppressed
taste description (enhancement, juiciness, mouthfeel) ([1]; 0.5 ppm in orange flavoured Tang): the sweet juicy orange notes and mouthfeel are enhanced
masking of soy protein off notes [2]: good reduction of the undesirable soy bean off-taste
taste description (richness, mouthfeel, fattiness) [2]: clean, rich, creamy and milky
authentic taste [3]: more authentic butter
masking of KCL off notes [3]: less metallic and bitter notes
saltiness and mouthfeel [3]: more saltiness, more mouthfeel
